Results reported in patent US20170158702A1, “MULTIVALENT RAS BINDING COMPOUNDS” (KYRAS THERAPEUTICS, INC., priority 2015, published 2017).
Where a name gives a salt, the structure may show the parent alone.

Tests used:
Type in all cases: cell-based
NCI-H460 = assay: Viability assay with NCI-H460 (CellTiter-Glo cytotoxicity assay, 72 h); conditions: NCI-H460 cell line, 72 h after compounds addition
Procedure, shortened: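 NCI-H460 cells, RPMI 1640 + 10% FBS, seeded 1200/well and adhered overnight, then exposed to compounds at 9 points, 2-fold dilution, in triplicate, 0.5% DMSO final. Cellular ATP measured by CellTiter-Glo luminescence 72 h after addition.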

MIA PaCa-2 = assay: Viability assay with MIA PaCa-2; conditions: MIA PaCa-2, viability assay per Example 57
Procedure, shortened: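 MIA PaCa-2 cells were seeded at 1200/well, allowed to adhere overnight, then treated in triplicate with 9-point 2-fold compound dilutions at 0.5% final DMSO. Viability was measured as cellular ATP by CellTiter-Glo luminescence 72 h after compound addition.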

U2OS = assay: Viability assay with U2OS; conditions: viability assay per Example 57
Procedure: (§1) NCI-H460 (Epithelial lung tissue; carcinoma; large cell lung cancer) were cultured in RPMI Medium 1640 (Invitrogen-22400105) supplemented with 10% fetal bovine serum (FBS; Invitrogen-10099141). All the cell lines were maintained in a humidified incubator at 37° C. with 5% CO2. Cell culture media and supplements were purchased from Invitrogen, and tissue culture flasks were purchased from Corning, 96-well plates were purchased from Greiner. CellTiter-Glo Luminescent Cell Viability Assay kits were purchased from Promega (Promega-G7573), cells counter Vi-Cell was purchased from Beckman, D300e digital dispenser was purchased from Tecan, detection instrument Envision was purchased from PerkinElmer.
(§2) Paclitaxel was purchased from SELLECK, test compounds, such as any one of the compounds disclosed herein, attained solubility in DMSO and when diluted into culture media. DMSO, solutions containing the test compounds, and culture media were warmed to 37° C. or room temperature for the solution preparation and dilutions.
(§3) NCI-H460 Cell line were seeded in 96-well plates (1200/well) and allowed to adhere to overnight (100 uL/well), for drug treatments with 2 fold dilution, 9 dose points, triplicates or vehicle control, compound stock solutions were prepared in DMSO and use D300e digital dispenser to add compounds to the wells to give the indicated final drug concentrations. Final DMSO concentration was 0.5%. Cellular ATP concentrations were assessed by using the CellTiter-Glo Cell Viability Assay as per the manufacturer's instructions 72 h after compounds addition. Additional cells lines were assayed with any one of the compounds disclosed herein according to the procedures described for the viability assay with NCI-H460.
The viability assay with U2OS (epithelial bone tissue; osteosarcoma) was performed with compounds listed in Table 17 according to the procedures described in Example 57.

NCI-H2023 = assay: Viability assay with NCI-H2023; conditions: NCI-H2023, viability assay per Example 57
Procedure: as §1, §2, §3
A viability assay with NCI-H2023 (stage 3A, adenocarcinoma; non-small cell lung cancer) was performed with compounds listed in Table 16 according to the procedures described in Example 57.

HT-29 = assay: Viability assay with HT-29; conditions: HT-29, viability assay per Example 57
Procedure, shortened: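 Cells seeded 1200/well, adhered overnight, then treated with 9-point 2-fold compound dilutions in triplicate (0.5% final DMSO). Viability taken as cellular ATP by CellTiter-Glo luminescence 72 h after compound addition.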

Measured: EC50

NCCCn1cc(-c2ccc(OC(F)(F)F)cc2)c2cc(CN3CCC4(CC3)CCN(Cc3ccccc3Cl)C4)ccc21 [C5; HCl]
≤ 5 µM: NCI-H460 | MIA PaCa-2 | U2OS

NCCN(CCN)CCCn1cc(-c2ccc(OC(F)(F)F)cc2)c2cc(CN3CCN(Cc4c(Cl)cccc4Cl)CC3)ccc21 [C7; Formic acid]
≤ 5 µM: NCI-H460 | MIA PaCa-2 | U2OS

N#Cc1ccccc1-c1cn(CCCN)c2ccc(CN3CCN(Cc4c(Cl)cccc4Cl)CC3)cc12 [C8; HCl]
≤ 5 µM: NCI-H460 | MIA PaCa-2 | U2OS

NCCCn1cc(-c2ccc(OC(F)(F)F)cc2)c2cc(CN3CCN(Cc4cccc(Cl)c4)CC3)ccc21 [C9; HCl]
≤ 5 µM: NCI-H460 | MIA PaCa-2 | U2OS

NCCCn1cc(-c2ccc(CN)cc2)c2cc(CN3CCN(Cc4c(Cl)cccc4Cl)CC3)ccc21 [C10; Formic acid]
≤ 5 µM: NCI-H460 | MIA PaCa-2 | U2OS

COc1cc(CN2CCN(Cc3ccc4c(c3)c(-c3ccc(OC(F)(F)F)cc3)cn4CCCN)CC2)cc(OC)c1 [C11; HCl]
≤ 5 µM: NCI-H460 | MIA PaCa-2 | U2OS

COc1cccc(CN2CCN(Cc3ccc4c(c3)c(-c3ccc(OC(F)(F)F)cc3)cn4CCCN)CC2)c1Cl [C12; HCl]
≤ 5 µM: NCI-H460 | MIA PaCa-2 | U2OS

COc1ccc(-c2cn(CCCN)c3ccc(CN4CCN(Cc5c(Cl)cccc5Cl)CC4)cc23)cc1 [C22; Formic acid]
≤ 5 µM: NCI-H460 | MIA PaCa-2 | NCI-H2023 | U2OS

NCCCCn1cc(-c2ccc(OC(F)(F)F)cc2)c2cc(CN3CCN(Cc4c(Cl)cccc4Cl)CC3)ccc21 [C43; HCl]
≤ 5 µM: NCI-H460 | MIA PaCa-2 | NCI-H2023 | U2OS

NCCCn1cc(-c2ccc(OC(F)(F)F)cc2)c2cc(CN3CCN(Cc4cccc(C(F)(F)F)c4Cl)CC3)ccc21 [C155; HCl]
≤ 5 µM: NCI-H460 | MIA PaCa-2 | U2OS

NCCCn1cc(-c2ccc(OC(F)(F)F)cc2)c2cc(CN3CCN(Cc4cc(Cl)ccc4Cl)CC3)ccc21 [C156; HCl]
≤ 5 µM: NCI-H460 | HT-29 | MIA PaCa-2 | U2OS

CCc1ccc(-c2cn(CCCN)c3ccc(CN4CC5CCC(C4)N5Cc4ccccc4Cl)cc23)cc1 [C157; HCl]
≤ 5 µM: NCI-H460 | MIA PaCa-2 | U2OS

COc1ccc(-c2cn(CCCN)c3ccc(CN4CC5CCC(C4)N5Cc4ccccc4Cl)cc23)cc1 [C158; HCl]
≤ 5 µM: NCI-H460 | MIA PaCa-2 | U2OS

NCCCn1cc(-c2ccc(OC(F)(F)F)cc2)c2cc(CC3CCN(Cc4ccccc4Cl)CC3)ccc21 [C159; HCl]
≤ 5 µM: NCI-H460 | MIA PaCa-2 | U2OS

NCCCn1cc(-c2ccc(OC(F)(F)F)cc2)c2cc(CN3CCN(CC(F)(F)F)CC3)ccc21 [C160; HCl]
≤ 5 µM: NCI-H460 | MIA PaCa-2 | U2OS

NCCCn1cc(-c2ccccc2CN)c2cc(CN3CCN(Cc4c(Cl)cccc4Cl)CC3)ccc21 [C162; HCl]
≤ 5 µM: HT-29 | U2OS

NCCCn1cc(-c2ccc(OC(F)(F)F)cc2)c2cc(CN3CCN(Cc4cccc(OC(F)(F)F)c4)CC3)ccc21 [C163; HCl]
≤ 5 µM: NCI-H460 | MIA PaCa-2 | U2OS

NCCCn1cc(-c2ccc(OC(F)(F)F)cc2)c2cc(CN3CCN(Cc4cccc(Cl)c4Cl)CC3)ccc21 [C164; HCl]
≤ 5 µM: NCI-H460 | MIA PaCa-2 | U2OS

NCCCn1cc(-c2ccc(OC(F)(F)F)cc2)c2cc(CN3CCN(Cc4cc(F)ccc4Cl)CC3)ccc21 [C165; HCl]
≤ 5 µM: NCI-H460 | MIA PaCa-2 | U2OS

CC(C)(c1ccccc1Cl)N1CCN(Cc2ccc3c(c2)c(-c2ccc(OC(F)(F)F)cc2)cn3CCCN)CC1 [C166; Formic Acid]
≤ 5 µM: NCI-H460 | HT-29 | MIA PaCa-2 | U2OS

NCCCn1cc(-c2ccccc2Cl)c2cc(CN3CCN(Cc4c(Cl)cccc4Cl)CC3)ccc21 [C167; HCl]
≤ 5 µM: NCI-H460 | MIA PaCa-2 | U2OS

NCCCn1cc(-c2cccc(CN)c2)c2cc(CN3CCN(Cc4c(Cl)cccc4Cl)CC3)ccc21 [C168; HCl]
≤ 5 µM: NCI-H460 | HT-29 | MIA PaCa-2 | U2OS

NCCCn1cc(-c2ccc(OC(F)(F)F)cc2)c2cc(CN3CCC4(CCN(Cc5ccccc5Cl)CC4)C3)ccc21 [C169; HCl]
≤ 5 µM: NCI-H460 | HT-29 | MIA PaCa-2 | U2OS

CN(CCN(C)Cc1ccccc1Cl)Cc1ccc2c(c1)c(-c1ccc(OC(F)(F)F)cc1)cn2CCCN [C172; HCl]
≤ 5 µM: NCI-H460 | MIA PaCa-2 | U2OS

CN(CCNCc1ccc2c(c1)c(-c1ccc(OC(F)(F)F)cc1)cn2CCCN)Cc1ccccc1Cl [C173; HCl]
≤ 5 µM: NCI-H460 | MIA PaCa-2 | U2OS
